Experimental data from US11857544B2, “Composition or method including (t)ew-7197 for treating or preventing corneal endothelial diseases” (THE DOSHISHA, priority 2017, dated 2024).

Tests used:
[1] = tested on: immortalized human corneal endothelial cells from a Fuchs' endothelial corneal dystrophy patient (iFECD); assay: Suppression of TGF-β-induced corneal endothelial cell disorder, observed under a phase contrast microscope; assay type: cell-based; details: for effect of suppressing corneal endothelial cell disorder: Example 1, iFECD, 24 h pretreatment then 10 ng/ml TGF-β 24 h; for effect of suppressing corneal endothelial cell disorders: Example 2, iFECD + TGF-β
Description: The medium was removed from a culture dish culturing immortalized human corneal endothelial cells from a Fuchs' endothelial corneal dystrophy patient (iFECD), and 1×PBS(-) preheated to 37° C. was added and washed. This was repeated twice. 1×PBS(-) was added again and the medium was incubated for 5 minutes at 37° C. (5% CO2). After removing the PBS(-), 0.05% Trypsin-EDTA (Nacalai Tesque, 32778-34) was added and incubated for 5 minutes at 37° C. (5% CO2). The medium was then suspended and centrifuged for 3 minutes at 1500 rpm to retrieve cells. DMEM (Nacalai Tesque, 08456-36)+10% FBS (Biowest, S1820-500)+1% P/S (Nacalai Tesque, 26252-94) was used as the medium. The immortalized human corneal endothelial cells from a Fuchs' endothelial corneal dystrophy patient (iFECD) were seeded on a 12-well plate at a ratio of 8.0×10^4 cells per well and cultured for 24 hours at 37° C. (5% CO2). DMEM+10% FBS+1% P/S was used as the medium. After 24 hours, the medium was exchanged and cultured again for 24 hours. DMEM+2% FBS+1% P/S was used as the medium. After 24 hours, the medium was removed. 10 ng/ml of Transforming Growth Factor-132 Human recombinant (WAKO, 200-19911) was added, and the medium was cultured for 24 hours. DMEM+2% FBS+1% P/S was used as the medium. After 24 hours, the cell morphology and apoptosis were observed under a phase contrast microscope. After […] were seeded on a 12-well plate and cultured for 24 hours, the medium was removed. SB431542 (WAKO, 192-16541) and EW-7197 (Selleck Chemicals, 57530) were added so that the final concentration would each be 0.1, 0.3, 1, 3, or 10 μM, and the medium was cultured for 24 hours. DMEM+2% FBS+1% P/S was used as the medium. After 24 hours, the medium was removed. 10 ng/ml of Transforming Growth Factor-132 Human recombinant (WAKO, 200-19911) as well as SB431542 and EW-7197 were added so that the final concentration would each be 0.1, 0.3, 1, 3, or 10 μM, and the medium was cultured for 24 hours. DMEM+2% FBS+1% P/S was used as the medium. After 24 hours, the cell morphology and apoptosis were observed under a phase contrast microscope. After […] were seeded on a 12-well plate at a ratio of 7.0×10^4 cells and cultured for 24 hours, the medium was removed. EW-7197 (Selleck Chemicals, 57530) was added so that the final concentration would be 0.001, 0.003, 0.01, 0.03, 0.1, 0.3, 1, 3, 10, or 30 μM, and the medium was cultured for 24 hours. DMEM+2% FBS+1% P/S was used as the medium. After 24 hours, the medium was removed. 10 ng/ml of Transforming Growth Factor-132 Human recombinant (WAKO, 200-19911) and EW-7197 were added so that the final concentration would be 0.001, 0.003, 0.01, 0.03, 0.1, 0.3, 1, 3, 10, or 30 μM, and the medium was cultured for 24 hours. DMEM+2% FBS+1% P/S was used as the medium. After 24 hours, the cell morphology and apoptosis were observed under a phase contrast microscope.

fibronectin = assay: Western blot for fibronectin in TGF-β-stimulated iFECD; assay type: cell-based, human; details: any of the concentrations 0.1, 1, 10 μM
Description: […] were seeded on a 12-well plate at a ratio of 8×10^4 cells per well, and cultured at 37° C. (5% CO2) for 24 hours. DMEM+10% FBS+1% P/S was used as the medium. After 24 hours, the medium was removed. EW-7197 (Selleck Chemicals, 57530) was added so that the final concentration would be 0.1, 1, or 10 μM, and SB431542 (WAKO, 192-16541) was added so that the final concentration would be 10 μM, and the medium was cultured for 24 hours. DMEM+2% FBS+1% P/S was used as the medium. After 24 hours, the medium was removed and cultured […] so that the final concentration of 10 ng/ml of Transforming Growth Factor-132 Human recombinant (WAKO, 200-19911) and […] would be 0.1, 1, and 10 μM, and that of SB431542 would be 10 μM. DMEM+2% FBS+1% P/S was used as the medium. After 24 hours, the cell morphology and apoptosis were observed under a phase contrast microscope. To retrieve floating and dead cells, the medium was retrieved on ice, cells were washed twice with 1×PBS(-) and the solution thereof was also retrieved. The solution was centrifuged for 5 min at 4° C. and 800 g and the supernatant was discarded to obtain a precipitate. […] The detected band intensities were analyzed with Lumino Image Analyzer LAS-4000 mini (Fuji Film) and ImageQuantTM software (GE Healthcare).

## Cc1cccc(-c2[nH]c(CNc3ccccc3F)nc2-c2ccc3ncnn3c2)n1 [EW-7197, N-((4-([1,2,4]triazolo[1,5-a]pyridin-6-yl)-5-(6-methylpyridin-2-yl)-1H-imidazol-2-yl)methyl)-2-fluoroaniline]
[1]; compound at 3 μM and 10 μM
  effect of suppressing corneal endothelial cell disorder: confirmed
  effect of suppressing corneal endothelial cell disorders: effectively suppressed
[1]; compound at 0.1, 0.3, and 1 μM
  effect of suppressing corneal endothelial cell disorder: effectively suppressed
[1]; compound at 0.03, 0.1, 0.3, and 1 μM
  effect of suppressing corneal endothelial cell disorders: particularly excellent effect of suppressing corneal endothelial cell disorders
[1]; summary statement, at a low concentration of 0.03 μM
  effect of suppressing corneal endothelial disorders: very potent effect of suppressing corneal endothelial disorders
fibronectin
  expression of fibronectin (about 240 kDa): suppressed to the same degree as the control group without stimulation with TGF-β or 10 μM of SB431542
